# PMC3329467, “Stereoselective Regulations of P-Glycoprotein by Ginsenoside Rh2 Epimers and the Potential Mechanisms From the View of Pharmacokinetics” (PLoS ONE, 2012)
# Where two headings read alike, the source gives them in different places.
# Key:
# [1] = Oral pharmacokinetics of 20(S)-Rh2 and 20(R)-Rh2 in rats (stereoselective LC-MS); assay type: in vivo, rat; conditions: for Detection in plasma: after oral administration of 20(R)-Rh2, rats; for Cmax / Tmax / MRT last: Sprague-Dawley, rat, po; for MRT last: read-out: MRT 0-t (converted); for Inverted proportion (chiral inversion): after oral administration of a single configuration of Rh2, rats
# Description: To investigate the differences of pharmacokinetic characteristics between 20(S)-Rh2 and 20(R)-Rh2, rats were divided into 2 groups with five rats for each group. One received a single dose of 20(S)-Rh2 intragastrically at 25 mg/kg suspended in 0.5% CMC-Na, while the other received 20(R)-Rh2 at the same dosage. Blood samples were collected at 0, 30, 60, 180, 240, 300, 360, 480, 660 and 840 min after oral administration into heparinized tubes. Plasma was obtained by centrifugation at 5000 g for 10 min and stored at −20°C before analysis.
# The 20(S)-Rh2, 20(R)-Rh2 and the deglycosylation metabolites 20(S)-Ppd and 20(R)-Ppd were quantified simultaneously by reversed-phase LC-MS. An aliquot of 100 µl sample spiked with digitoxin as internal standard was extracted by 1 ml ethylacetate. The analysis was performed on Finnigan LC-MS system (Thermo Electron, San Jose, CA, USA) with a Lux Cellulose-1 Chiral Column (250×4.6 mm, 5 µm, Phenomenex, USA). The column and autosampler tray temperatures were 40 and 4°C, respectively. The mobile phase was consisted of methanol, acetonitrile and 0.1% formic acid with gradient elution (Table 5). Mass spectrometer was operated in positive ESI mode. MS parameters were as follows: spray voltage, 5.0 kV; sheath gas/auxiliary gas, nitrogen; sheath gas pressure, 35×10^5 Pa; auxiliary gas pressure, 20×10^5 Pa; ion transfer capillary temperature, 300°C. Quantification was performed using SIM mode with [M+Na]^+ peak: m/z 645.4 for Rh2; m/z 483.3 for Ppd; m/z 787.5 for digitoxin (internal standard).
# (§1) The pharmacokinetic parameters of digoxin, 20(S)-Rh2 and 20(R)-Rh2 in rats were obtained by noncompartmental analysis using DAS (Drug and Statistics, version 2.1, Chinese Pharmacological Society). The area under the plasma concentration-time curve (AUC) was calculated using the trapezoidal method.
# P-gp [2] = biological target: T1, P-gp (Homo sapiens, UniProt P08183); assay: P-gp mediated bidirectional transport of digoxin across Caco-2 cell monolayers; assay type: cell-based
# T1 construct: host or cells: Caco-2 cell monolayers
# Description: The Caco-2 cell transport model was established as described previously. Then, Hank's balanced salt solution (HBSS) containing 20(S)-Rh2, 20(R)-Rh2, 20(S)-Ppd, 20(R)-Ppd or 0.1% DMSO (control) was loaded into both apical and basolateral chambers. After incubation at 37°C for 1 h, 5 µM digoxin was added to either apical or basolateral side to evaluate the transport in absorptive and secretory direction respectively. After incubation for just another 2 h, samples were taken from the receiving chamber for analysis. Verapamil (10 µM) was used as a positive control. Digoxin was determined by LC-MS/MS. All experiments were conducted in triplicate.
# For the transport assay, the apparent permeability coefficient (Papp) and efflux ratio (ER) were calculated as reported previously.
# [3] = system: Ca^2+, K^+ and Na^+ channel; set-up: method as in PMID 15650337, PMID 15979567; conditions: dose- and voltage-dependent; cited from earlier work
# [4] = system: androgen-dependent and –independent prostate cancer cells; set-up: method as in PMID 20554003; conditions: cited from earlier work
# P-glycoprotein (P-gp) = conditions: in vitro and in vivo; cited from earlier work
# osteoclasts = conditions: cited from earlier work
# osteoclastgenesis = conditions: cited from earlier work
# human fecal microflora = system: human fecal microflora; set-up: method as in PMID 11824558; conditions: cited from earlier work
# P-gp [5] = assay: Effects of Rh2 epimers on oral pharmacokinetics of P-gp substrate digoxin in rats; assay type: in vivo, rat
# Description: The rats were divided into five groups with five each. One group of rats received i.g. single dose of the vehicle (0.5% CMC-Na) serving as the control. Two groups were i.g. administered 20(S)-Rh2 suspended in 0.5% CMC-Na at the doses of 5 mg/kg and 50 mg/kg respectively, while another two groups i.g. administration of 20(R)-Rh2 suspended in 0.5% CMC-Na at the doses of 5 mg/kg and 50 mg/kg respectively. Two hours later, P-gp substrate, digoxin (0.25 mg/kg) was given to the rats by i.g. administration. Blood samples were collected before the P-gp substrate dosing and at 0.08, 0.17, 0.25, 0.5, 1, 2, 3, 6, 8 h post-digoxin-dosing. Plasma was obtained by centrifugation at 5000 g for 10 min and stored at −20°C before analysis. Plasma concentrations of digoxin were determined as described previously.
# as §1
# [6] = set-up: method as in PMID 19524010; conditions: 1–9 mg/kg i.g., rats; cited from earlier work
# [7] = 1 h preincubation, 5 µM digoxin 2 h, concentration series
# [8] = in vivo, 25 mg/kg, after oral administration of the same epimer, rats
# [9] = in vivo, 25 mg/kg, plasma analyte after i.g. 20(R)-Rh2 25 mg/kg, rats
# [10] = in vivo, 25 mg/kg, plasma analyte after i.g. 20(S)-Rh2 25 mg/kg, rats
# [11] = plasma analyte after i.g. 20(R)-Rh2 25 mg/kg, rats
# [12] = plasma analyte after i.g. 20(S)-Rh2 25 mg/kg, rats
# T1 sequence (P08183 whole entry): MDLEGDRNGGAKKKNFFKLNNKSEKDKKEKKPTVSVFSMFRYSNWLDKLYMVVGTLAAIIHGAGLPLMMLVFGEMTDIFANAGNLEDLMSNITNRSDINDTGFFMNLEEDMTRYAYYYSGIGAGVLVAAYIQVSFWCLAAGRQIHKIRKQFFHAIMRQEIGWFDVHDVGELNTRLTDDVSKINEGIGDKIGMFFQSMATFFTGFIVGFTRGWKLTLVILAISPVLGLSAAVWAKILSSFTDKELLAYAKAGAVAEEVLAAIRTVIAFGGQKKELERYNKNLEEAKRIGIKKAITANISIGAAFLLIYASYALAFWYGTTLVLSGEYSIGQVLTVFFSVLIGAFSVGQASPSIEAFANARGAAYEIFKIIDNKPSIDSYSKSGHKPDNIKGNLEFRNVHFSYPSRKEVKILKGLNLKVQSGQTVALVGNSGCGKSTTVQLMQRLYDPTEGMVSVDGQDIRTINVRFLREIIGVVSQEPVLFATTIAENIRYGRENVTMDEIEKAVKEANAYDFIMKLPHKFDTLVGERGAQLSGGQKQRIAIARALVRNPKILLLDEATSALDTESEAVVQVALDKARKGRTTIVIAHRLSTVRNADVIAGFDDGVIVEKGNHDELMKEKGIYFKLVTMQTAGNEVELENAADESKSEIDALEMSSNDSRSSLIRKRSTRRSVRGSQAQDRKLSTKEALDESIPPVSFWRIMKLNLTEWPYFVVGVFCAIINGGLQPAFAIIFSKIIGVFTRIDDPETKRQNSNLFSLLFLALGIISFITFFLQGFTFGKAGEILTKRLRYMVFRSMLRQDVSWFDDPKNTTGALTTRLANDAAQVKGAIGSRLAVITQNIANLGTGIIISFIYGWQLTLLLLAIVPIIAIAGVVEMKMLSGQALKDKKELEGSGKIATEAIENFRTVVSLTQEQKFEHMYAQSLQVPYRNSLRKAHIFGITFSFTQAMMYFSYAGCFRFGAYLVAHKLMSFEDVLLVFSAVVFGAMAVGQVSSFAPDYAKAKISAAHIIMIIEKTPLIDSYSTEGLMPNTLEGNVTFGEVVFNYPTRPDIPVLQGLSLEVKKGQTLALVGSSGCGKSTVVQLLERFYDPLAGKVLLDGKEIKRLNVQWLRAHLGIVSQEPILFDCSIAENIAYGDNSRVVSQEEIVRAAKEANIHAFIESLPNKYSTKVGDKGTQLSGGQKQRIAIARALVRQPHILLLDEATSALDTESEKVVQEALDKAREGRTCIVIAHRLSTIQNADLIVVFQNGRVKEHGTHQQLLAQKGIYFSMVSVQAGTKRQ
structure (smiles),measurement,setting,value
"CC(C)=CCC[C@@](C)(O)[C@H]1CC[C@]2(C)[C@@H]1[C@H](O)C[C@@H]1[C@@]3(C)CC[C@H](O)C(C)(C)[C@@H]3CC[C@]12C [Ppd, protopanaxadiol]",Detection in plasma,[1],no Ppd was found
"CC(C)=CCC[C@@](C)(O)[C@H]1CC[C@]2(C)[C@@H]1[C@H](O)C[C@@H]1[C@@]3(C)CC[C@H](O)C(C)(C)[C@@H]3CC[C@]12C [20(R)-Ppd, 20(R)-protopanaxadiol]",Detection in plasma,[1],not detected
same,Effect on efflux ratio of digoxin across Caco-2 cell monolayers,P-gp [2]; [7],lowered the efflux ratio of digoxin across Caco-2 cell monolayers concentration-dependently
CC(C)=CCC[C@](C)(O)[C@H]1CC[C@]2(C)[C@@H]1[C@H](O)C[C@@H]1[C@@]3(C)CC[C@H](O[C@@H]4O[C@H](CO)[C@@H](O)[C@H](O)[C@H]4O[C@@H]4O[C@H](CO)[C@@H](O)[C@H](O)[C@H]4O)C(C)(C)[C@@H]3CC[C@]12C [20(R)-ginsenoside Rg3],"Inhibition of Ca^2+, K^+ and Na^+ channel currents",[3],not
"CC(C)=CCC[C@](C)(O)[C@H]1CC[C@]2(C)[C@@H]1[C@H](O)C[C@@H]1[C@@]3(C)CC[C@H](O[C@@H]4O[C@H](CO)[C@@H](O)[C@H](O)[C@H]4O)C(C)(C)[C@@H]3CC[C@]12C [20(S)-Rh2, 20(S)-ginsenoside Rh2]",Inhibition of proliferation of prostate cancer cells,[4],inhibited the proliferation
same,P-gp inhibition,P-glycoprotein (P-gp),effective P-gp inhibitor both in vitro and in vivo
same,Cytotoxicity in osteoclasts,osteoclasts,strong cytotoxicity
same,Osteoclastgenesis inhibition,osteoclastgenesis,weak osteoclastgenesis inhibition
same,Cmax,[1]; [8],~1000 nM
same,Cmax,[1]; [9],5 ± 1 ng/mL
same,Tmax,[1]; [9],2.33 h
same,MRT last,[1]; [9],2.2 h
same,Cmax,[1]; [10],572 ± 162 ng/mL
same,Tmax,[1]; [10],3.45 h
same,MRT last,[1]; [10],3.35 h
same,Inverted proportion (chiral inversion),[1],~10%
same,AUC 0-t,[1]; [11],1193 ± 230 µg·min/L
same,AUC 0-t,[1]; [12],149888 ± 40725 µg·min/L
same,AUC higher than that of 20(R)-Rh2,"[1]; same oral dosage, rats",10 fold
same,Effect on efflux ratio of digoxin across Caco-2 cell monolayers,P-gp [2]; [7],decreased the efflux ratio of digoxin crossing Caco-2 cell monolayers in a concentration-dependent manner
CC(C)=CCC[C@](C)(O)[C@H]1CC[C@]2(C)[C@@H]1[C@H](O)C[C@@H]1[C@@]3(C)CC[C@H](O[C@@H]4O[C@H](CO)[C@@H](O)[C@H](O)[C@H]4O[C@@H]4O[C@H](CO)[C@@H](O)[C@H](O)[C@H]4O)C(C)(C)[C@@H]3CC[C@]12C [20(S)-ginsenoside Rg3],"Inhibition of Ca^2+, K^+ and Na^+ channel currents",[3],inhibited
same,"Amount transformed to 20(S)-ginsenoside Rh2, higher than 20(R)-Rg3 to 20(R)-Rh2",human fecal microflora,19 fold
"CC(C)=CCC[C@@](C)(O)[C@H]1CC[C@]2(C)[C@@H]1[C@H](O)C[C@@H]1[C@@]3(C)CC[C@H](O[C@@H]4O[C@H](CO)[C@@H](O)[C@H](O)[C@H]4O)C(C)(C)[C@@H]3CC[C@]12C [20(R)-Rh2, 20(R)-ginsenoside Rh2]",Effect on AUC and Cmax of digoxin,P-gp [5]; 5 mg/kg i.g. prior to i.g. digoxin,significantly enhanced
same,Effect on absorption of digoxin compared with control group,P-gp [5]; 50 mg/kg i.g. prior to i.g. digoxin,not changed significantly
same,Cytotoxicity in osteoclasts,osteoclasts,without any cytotoxicity
same,Osteoclastgenesis inhibition,osteoclastgenesis,selective osteoclastgenesis inhibitor
same,Cmax,[1]; [8],≤ 50 nM
same,Cmax,[1]; [9],29 ± 5 ng/mL
same,Tmax,[1]; [9],4.75 h
same,MRT last,[1]; [9],4.65 h
same,Cmax,[1]; [10],17 ± 2 ng/mL
same,Tmax,[1]; [10],2.1 h
same,MRT last,[1]; [10],2.38 h
same,Inverted proportion (chiral inversion),[1],~10%
same,AUC 0-t,[1]; [11],13204 ± 2322 µg·min/L
same,AUC 0-t,[1]; [12],8648 ± 1871 µg·min/L
same,Effect on efflux ratio of digoxin across Caco-2 cell monolayers,"P-gp [2]; 1 µM, 5 µM digoxin",significantly lowered the efflux ratio of digoxin
same,Effect on efflux ratio of digoxin across Caco-2 cell monolayers,"P-gp [2]; elevated concentrations, 5 µM digoxin",the efflux ratio of digoxin were restored
"CC(C)=CCC[C@](C)(O)[C@H]1CC[C@]2(C)[C@@H]1[C@H](O)C[C@@H]1[C@@]3(C)CC[C@H](O[C@@H]4O[C@H](CO)[C@@H](O)[C@H](O)[C@H]4O)C(C)(C)[C@@H]3CC[C@]12C [Rh2, ginsenoside Rh2]",Absolute bioavailability,[6],4.0–6.4%
C[C@H]1O[C@@H](O[C@H]2[C@@H](O)C[C@H](O[C@H]3[C@@H](O)C[C@H](O[C@H]4CC[C@@]5(C)[C@H](CC[C@@H]6[C@@H]5C[C@@H](O)[C@]5(C)[C@@H](C7=CC(=O)OC7)CC[C@]65O)C4)O[C@@H]3C)O[C@@H]2C)C[C@H](O)[C@@H]1O [Digoxin],Cmax,"P-gp [5]; Sprague-Dawley (SD), rat, plasma, po, digoxin 0.25 mg/kg i.g., control (no Rh2)",9.9 ± 2.6 nM
same,AUC 0-t,"P-gp [5]; Sprague-Dawley (SD), rat, plasma, po, digoxin 0.25 mg/kg i.g., control (no Rh2), read-out: AUC 0–12 of digoxin",0.0154 ± 0.0029 µM·h
same,MRT last,"P-gp [5]; Sprague-Dawley (SD), rat, plasma, po, digoxin 0.25 mg/kg i.g., control (no Rh2), read-out: MRT0–12 of digoxin",1.7 ± 0.6 h
same,half-life,"P-gp [5]; Sprague-Dawley (SD), rat, plasma, po, digoxin 0.25 mg/kg i.g., control (no Rh2), read-out: t1/2 of digoxin (converted)",1.2 ± 0.4 h
"CC(C)=CCC[C@](C)(O)[C@H]1CC[C@]2(C)[C@@H]1[C@H](O)C[C@@H]1[C@@]3(C)CC[C@H](O)C(C)(C)[C@@H]3CC[C@]12C [20(S)-Ppd, 20(S)-protopanaxadiol]",Cmax,[1]; [12],85 ± 7 ng/mL
same,Tmax,[1]; [12],8.67 h
same,MRT last,[1]; [12],9.05 h
same,AUC 0-t,[1]; [12],35129 ± 2261 µg·min/L
same,Effect on efflux ratio of digoxin across Caco-2 cell monolayers,P-gp [2]; [7],lowered the efflux ratio of digoxin across Caco-2 cell monolayers concentration-dependently
